According to paper PMC8333425, “Discovery of a dual Ras and ARF6 inhibitor from a GPCR endocytosis screen” (Nature Communications, 2021):

Key:
Assay in all cases: KINOMEscan kinase binding assay
[1] = target: T1, 384 kinases from the human genome (Homo sapiens, UniProt Q14680); details: kinase MELK (Entrez MELK)
T1 construct: purchased Eurofin/DiscoverX
How it was run: (§1)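 A panel of 384 human kinases was profiled by KINOMEscan binding in the presence of 10 µM compound. Kinase–ligand binding was given as percent of DMSO control, averaged from duplicates in a single run, with an S(10) selectivity score.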

[2] = target: T2, 384 kinases from the human genome (Homo sapiens, UniProt Q08881); details: kinase ITK (Entrez ITK)
T2 construct: purchased Eurofin/DiscoverX
How it was run: as §1

[3] = target: T3, 384 kinases from the human genome (Homo sapiens, UniProt P10721)
T3 construct: purchased Eurofin/DiscoverX
How it was run: as §1

[4] = target: T4, 384 kinases from the human genome (Homo sapiens, UniProt Q8TDX7); details: kinase NEK7 (Entrez NEK7)
T4 construct: purchased Eurofin/DiscoverX
How it was run: as §1

[5] = target: T5, 384 kinases from the human genome (Homo sapiens, UniProt P42345); details: kinase MTOR (Entrez MTOR)
T5 construct: purchased Eurofin/DiscoverX
How it was run: as §1

[6] = target: T6, 384 kinases from the human genome (Homo sapiens, UniProt P53667); details: kinase LIMK1 (Entrez LIMK1)
T6 construct: purchased Eurofin/DiscoverX
How it was run: as §1

[7] = target: T7, 384 kinases from the human genome (Homo sapiens, UniProt Q06187); details: kinase BTK (Entrez BTK)
T7 construct: purchased Eurofin/DiscoverX
How it was run: as §1

[8] = target: T8, 384 kinases from the human genome (Homo sapiens, UniProt P20794); details: kinase MAK (Entrez MAK)
T8 construct: purchased Eurofin/DiscoverX
How it was run: as §1

[9] = target: T9, 384 kinases from the human genome (Homo sapiens, UniProt Q99683); details: kinase ASK1 (Entrez MAP3K5)
T9 construct: purchased Eurofin/DiscoverX
How it was run: as §1

[10] = target: T10, 384 kinases from the human genome (Homo sapiens, UniProt P48729); details: kinase CSNK1A1 (Entrez CSNK1A1)
T10 construct: purchased Eurofin/DiscoverX
How it was run: as §1

[11] = target: T11, 384 kinases from the human genome (Homo sapiens, UniProt Q13557); details: kinase CAMK2D (Entrez CAMK2D)
T11 construct: purchased Eurofin/DiscoverX
How it was run: as §1

[12] = target: T12, 384 kinases from the human genome (Homo sapiens, UniProt O95747); details: kinase OSR1 (Entrez OXSR1)
T12 construct: purchased Eurofin/DiscoverX
How it was run: as §1

[13] = target: T13, 384 kinases from the human genome (Homo sapiens, UniProt O00141); details: kinase SGK (Entrez SGK1)
T13 construct: purchased Eurofin/DiscoverX
How it was run: as §1

[14] = target: T14, 384 kinases from the human genome (Homo sapiens, UniProt P42680); details: kinase TEC (Entrez TEC)
T14 construct: purchased Eurofin/DiscoverX
How it was run: as §1

[15] = target: T15, 384 kinases from the human genome (Homo sapiens, UniProt P29376); details: kinase LTK (Entrez LTK)
T15 construct: purchased Eurofin/DiscoverX
How it was run: as §1

[16] = target: T16, 384 kinases from the human genome (Homo sapiens, UniProt Q9UHD2); details: kinase TBK1 (Entrez TBK1)
T16 construct: purchased Eurofin/DiscoverX
How it was run: as §1

[17] = target: T17, 384 kinases from the human genome (Homo sapiens, UniProt Q9UL54); details: kinase TAOK2 (Entrez TAOK2)
T17 construct: purchased Eurofin/DiscoverX
How it was run: as §1

[18] = target: T18, 384 kinases from the human genome (Homo sapiens, UniProt P37173); details: kinase TGFBR2 (Entrez TGFBR2)
T18 construct: purchased Eurofin/DiscoverX
How it was run: as §1

[19] = target: T19, 384 kinases from the human genome (Homo sapiens, UniProt Q9HBY8); details: kinase SGK2 (Entrez SGK2)
T19 construct: purchased Eurofin/DiscoverX
How it was run: as §1

[20] = target: T20, 384 kinases from the human genome (Homo sapiens, UniProt O75747); details: kinase PIK3C2G (Entrez PIK3C2G)
T20 construct: purchased Eurofin/DiscoverX
How it was run: as §1

[21] = target: T21, 384 kinases from the human genome (Homo sapiens, UniProt Q9H0K1); details: kinase SIK2 (Entrez SIK2)
T21 construct: purchased Eurofin/DiscoverX
How it was run: as §1

[22] = target: T22, 384 kinases from the human genome (Homo sapiens, UniProt Q9BXA7); details: kinase TSSK1B (Entrez TSSK1B)
T22 construct: purchased Eurofin/DiscoverX
How it was run: as §1

[23] = target: T23, 384 kinases from the human genome (Homo sapiens, UniProt Q86UE8); details: kinase TLK2 (Entrez TLK2)
T23 construct: purchased Eurofin/DiscoverX
How it was run: as §1

[24] = target: T24, 384 kinases from the human genome (Homo sapiens, UniProt Q16584); details: kinase MLK3 (Entrez MAP3K11)
T24 construct: purchased Eurofin/DiscoverX
How it was run: as §1

[25] = target: T25, 384 kinases from the human genome (Homo sapiens, UniProt P80192); details: kinase MLK1 (Entrez MAP3K9)
T25 construct: purchased Eurofin/DiscoverX
How it was run: as §1

[26] = target: T26, 384 kinases from the human genome (Homo sapiens, UniProt P54756); details: kinase EPHA5 (Entrez EPHA5)
T26 construct: purchased Eurofin/DiscoverX
How it was run: as §1

T3 sequence (P10721 26-976): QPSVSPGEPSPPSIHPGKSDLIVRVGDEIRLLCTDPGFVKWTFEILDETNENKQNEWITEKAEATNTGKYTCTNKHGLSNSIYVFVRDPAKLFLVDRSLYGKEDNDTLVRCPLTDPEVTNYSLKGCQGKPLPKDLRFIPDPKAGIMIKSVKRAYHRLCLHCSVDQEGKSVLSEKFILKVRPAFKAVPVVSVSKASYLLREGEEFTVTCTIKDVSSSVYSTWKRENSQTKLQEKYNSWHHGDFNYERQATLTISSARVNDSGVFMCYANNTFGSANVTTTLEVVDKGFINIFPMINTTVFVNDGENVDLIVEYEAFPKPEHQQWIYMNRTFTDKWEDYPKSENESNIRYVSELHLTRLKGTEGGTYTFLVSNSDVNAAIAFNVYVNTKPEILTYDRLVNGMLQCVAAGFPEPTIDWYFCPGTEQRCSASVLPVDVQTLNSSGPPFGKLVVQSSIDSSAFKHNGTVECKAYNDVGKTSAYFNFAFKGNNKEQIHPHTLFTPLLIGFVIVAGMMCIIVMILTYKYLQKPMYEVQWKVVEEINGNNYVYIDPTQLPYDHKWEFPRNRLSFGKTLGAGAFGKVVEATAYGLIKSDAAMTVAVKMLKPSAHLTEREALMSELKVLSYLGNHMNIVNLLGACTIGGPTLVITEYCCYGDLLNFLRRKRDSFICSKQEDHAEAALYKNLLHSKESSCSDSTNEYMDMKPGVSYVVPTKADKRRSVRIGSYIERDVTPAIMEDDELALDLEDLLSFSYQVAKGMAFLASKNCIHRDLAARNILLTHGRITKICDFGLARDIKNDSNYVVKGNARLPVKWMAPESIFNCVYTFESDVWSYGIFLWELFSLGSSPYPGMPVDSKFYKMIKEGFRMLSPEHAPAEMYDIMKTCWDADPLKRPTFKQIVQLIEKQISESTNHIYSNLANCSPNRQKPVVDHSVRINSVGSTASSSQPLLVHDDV
T18 sequence (P37173 23-567): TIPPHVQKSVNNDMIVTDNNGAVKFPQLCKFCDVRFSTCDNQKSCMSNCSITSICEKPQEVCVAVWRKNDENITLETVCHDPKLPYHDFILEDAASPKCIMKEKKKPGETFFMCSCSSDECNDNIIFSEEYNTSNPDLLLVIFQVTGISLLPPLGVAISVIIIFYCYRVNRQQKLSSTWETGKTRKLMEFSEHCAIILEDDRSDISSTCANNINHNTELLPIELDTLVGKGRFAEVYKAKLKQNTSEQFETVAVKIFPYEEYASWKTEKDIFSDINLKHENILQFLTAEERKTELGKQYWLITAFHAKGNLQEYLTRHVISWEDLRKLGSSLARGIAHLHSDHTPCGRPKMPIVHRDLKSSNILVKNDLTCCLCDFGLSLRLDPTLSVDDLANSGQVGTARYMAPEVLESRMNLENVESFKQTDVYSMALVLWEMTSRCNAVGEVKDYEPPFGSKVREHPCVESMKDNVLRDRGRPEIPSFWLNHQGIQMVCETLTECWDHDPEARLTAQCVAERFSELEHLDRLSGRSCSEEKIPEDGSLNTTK
T9 sequence (Q99683 whole entry): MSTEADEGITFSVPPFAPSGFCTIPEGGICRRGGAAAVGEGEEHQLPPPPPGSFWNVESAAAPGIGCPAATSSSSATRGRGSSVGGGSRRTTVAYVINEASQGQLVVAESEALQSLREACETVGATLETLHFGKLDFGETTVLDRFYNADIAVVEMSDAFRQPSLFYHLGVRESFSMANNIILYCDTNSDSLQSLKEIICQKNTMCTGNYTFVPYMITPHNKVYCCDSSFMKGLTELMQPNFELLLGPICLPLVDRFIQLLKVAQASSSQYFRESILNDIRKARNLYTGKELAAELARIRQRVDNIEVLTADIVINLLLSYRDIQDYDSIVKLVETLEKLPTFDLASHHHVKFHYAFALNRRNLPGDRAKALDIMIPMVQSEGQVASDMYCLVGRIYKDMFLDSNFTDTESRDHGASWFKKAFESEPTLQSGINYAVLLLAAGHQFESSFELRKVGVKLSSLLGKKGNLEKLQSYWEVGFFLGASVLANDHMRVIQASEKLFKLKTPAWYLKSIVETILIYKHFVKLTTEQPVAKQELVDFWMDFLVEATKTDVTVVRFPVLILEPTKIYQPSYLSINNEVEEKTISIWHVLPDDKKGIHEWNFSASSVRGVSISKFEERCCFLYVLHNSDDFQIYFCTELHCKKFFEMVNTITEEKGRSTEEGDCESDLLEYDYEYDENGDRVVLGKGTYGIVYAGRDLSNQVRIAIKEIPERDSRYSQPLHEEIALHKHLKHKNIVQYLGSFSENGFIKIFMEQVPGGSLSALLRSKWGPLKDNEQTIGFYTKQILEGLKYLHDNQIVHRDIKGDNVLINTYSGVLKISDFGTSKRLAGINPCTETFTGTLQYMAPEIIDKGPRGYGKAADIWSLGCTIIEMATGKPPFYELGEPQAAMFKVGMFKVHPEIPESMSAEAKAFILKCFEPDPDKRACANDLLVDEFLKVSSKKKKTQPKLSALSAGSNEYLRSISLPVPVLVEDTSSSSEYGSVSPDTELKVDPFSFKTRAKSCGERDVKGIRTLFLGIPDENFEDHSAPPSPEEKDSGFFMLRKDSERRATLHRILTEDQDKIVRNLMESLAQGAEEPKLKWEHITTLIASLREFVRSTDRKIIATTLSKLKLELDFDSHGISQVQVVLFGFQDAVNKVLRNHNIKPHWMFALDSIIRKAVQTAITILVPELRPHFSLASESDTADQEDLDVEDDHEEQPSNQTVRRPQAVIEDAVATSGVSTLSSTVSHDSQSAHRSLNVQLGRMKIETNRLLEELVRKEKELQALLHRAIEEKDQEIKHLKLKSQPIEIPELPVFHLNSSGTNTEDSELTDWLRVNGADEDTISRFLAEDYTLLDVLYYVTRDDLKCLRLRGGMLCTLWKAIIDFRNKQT
T13 sequence (O00141 whole entry): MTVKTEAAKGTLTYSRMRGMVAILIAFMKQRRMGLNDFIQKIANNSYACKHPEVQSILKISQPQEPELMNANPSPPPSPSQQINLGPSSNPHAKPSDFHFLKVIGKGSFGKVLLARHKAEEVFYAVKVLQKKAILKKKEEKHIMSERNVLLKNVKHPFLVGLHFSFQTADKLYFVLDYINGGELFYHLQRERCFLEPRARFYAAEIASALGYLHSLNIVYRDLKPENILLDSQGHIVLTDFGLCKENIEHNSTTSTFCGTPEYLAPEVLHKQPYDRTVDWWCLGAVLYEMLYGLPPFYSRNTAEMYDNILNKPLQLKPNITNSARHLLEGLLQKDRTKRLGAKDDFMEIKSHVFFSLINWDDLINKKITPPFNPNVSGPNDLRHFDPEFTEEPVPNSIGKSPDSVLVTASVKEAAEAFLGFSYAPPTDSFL
T16 sequence (Q9UHD2 whole entry): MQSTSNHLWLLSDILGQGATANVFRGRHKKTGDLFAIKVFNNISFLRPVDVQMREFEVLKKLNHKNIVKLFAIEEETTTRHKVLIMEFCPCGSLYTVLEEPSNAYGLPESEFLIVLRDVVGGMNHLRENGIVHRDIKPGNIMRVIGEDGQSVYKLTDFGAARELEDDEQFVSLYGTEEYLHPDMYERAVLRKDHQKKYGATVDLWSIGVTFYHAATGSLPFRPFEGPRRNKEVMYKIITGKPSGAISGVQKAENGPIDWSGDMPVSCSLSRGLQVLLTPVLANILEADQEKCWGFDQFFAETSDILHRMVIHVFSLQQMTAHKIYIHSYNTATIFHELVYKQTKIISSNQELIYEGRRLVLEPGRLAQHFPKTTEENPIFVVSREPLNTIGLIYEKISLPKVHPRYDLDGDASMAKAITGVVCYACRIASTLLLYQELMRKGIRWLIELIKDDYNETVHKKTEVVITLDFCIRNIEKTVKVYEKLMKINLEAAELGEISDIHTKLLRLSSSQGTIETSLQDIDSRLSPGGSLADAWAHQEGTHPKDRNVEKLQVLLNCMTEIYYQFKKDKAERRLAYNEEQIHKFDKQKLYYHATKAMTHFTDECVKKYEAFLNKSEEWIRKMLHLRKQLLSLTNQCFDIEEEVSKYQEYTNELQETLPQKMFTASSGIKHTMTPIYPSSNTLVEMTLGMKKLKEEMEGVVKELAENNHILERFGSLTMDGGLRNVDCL
T11 sequence (Q13557 whole entry): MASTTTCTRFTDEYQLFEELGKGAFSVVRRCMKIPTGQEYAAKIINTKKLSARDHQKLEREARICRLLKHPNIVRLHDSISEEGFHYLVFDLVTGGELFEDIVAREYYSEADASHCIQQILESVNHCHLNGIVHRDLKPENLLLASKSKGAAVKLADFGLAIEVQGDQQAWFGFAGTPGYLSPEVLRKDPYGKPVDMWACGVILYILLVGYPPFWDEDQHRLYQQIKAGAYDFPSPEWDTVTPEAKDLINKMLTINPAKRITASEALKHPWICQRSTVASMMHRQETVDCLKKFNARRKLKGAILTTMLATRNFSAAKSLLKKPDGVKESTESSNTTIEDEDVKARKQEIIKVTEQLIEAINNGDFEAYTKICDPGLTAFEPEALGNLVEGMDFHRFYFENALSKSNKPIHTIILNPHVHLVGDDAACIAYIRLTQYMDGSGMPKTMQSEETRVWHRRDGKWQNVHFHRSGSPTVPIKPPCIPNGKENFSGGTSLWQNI
T12 sequence (O95747 whole entry): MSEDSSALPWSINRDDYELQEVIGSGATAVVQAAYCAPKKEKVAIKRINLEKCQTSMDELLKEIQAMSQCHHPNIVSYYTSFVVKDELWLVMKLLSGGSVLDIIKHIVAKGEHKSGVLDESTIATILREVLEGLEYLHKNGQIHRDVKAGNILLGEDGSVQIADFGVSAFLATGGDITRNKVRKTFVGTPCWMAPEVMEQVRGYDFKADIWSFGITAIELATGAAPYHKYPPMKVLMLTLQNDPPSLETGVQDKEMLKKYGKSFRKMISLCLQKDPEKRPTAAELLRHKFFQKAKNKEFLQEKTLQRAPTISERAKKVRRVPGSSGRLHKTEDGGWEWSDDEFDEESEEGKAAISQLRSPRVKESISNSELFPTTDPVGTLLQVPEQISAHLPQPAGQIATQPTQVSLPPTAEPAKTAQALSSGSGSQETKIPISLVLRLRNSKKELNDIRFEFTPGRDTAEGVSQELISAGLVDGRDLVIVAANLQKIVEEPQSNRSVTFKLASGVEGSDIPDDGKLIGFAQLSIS

Compound: CC(C)C(=O)N1CCN(c2ccc(NC(=O)c3cc4ccccc4o3)cc2Cl)CC1 [Compound 21]
- Percent Control [1]: 29%
- Percent Control [2]: 100%
- KIT binding to its ligand affected ([3]; 10 µM of 21, compared to DMSO (100%)): more than 90%
- Percent Control ([3]; kinase KIT (Entrez KIT)): 5.9%
- Percent Control ([3]; kinase KIT-autoinhibited (Entrez KIT)): 93%
- Percent Control [4]: 100%
- Percent Control [5]: 65%
- Percent Control [6]: 79%
- Percent Control [7]: 94%
- Percent Control [8]: 84%
- Percent Control [9]: 79%
- Percent Control [10]: 88%
- Percent Control [11]: 92%
- Percent Control [12]: 95%
- Percent Control [13]: 100%
- Percent Control [14]: 98%
- Percent Control [15]: 90%
- Percent Control [16]: 100%
- Percent Control [17]: 93%
- Percent Control [18]: 99%
- Percent Control [19]: 100%
- Percent Control [20]: 100%
- Percent Control [21]: 77%
- Percent Control [22]: 100%
- Percent Control [23]: 100%
- Percent Control [24]: 93%
- Percent Control [25]: 96%
- Percent Control [26]: 100%
